Among the test systems are DMS 114 small cell lung; DLD-1 colon; KM20L2 colon; DMS 273 small cell lung; LXFL 529 NSCLC; MDA-N; XF 498 CNS; RXF-631 renal; HOP-18 NSCLC.
Common to all, as to test: growth of human tumour cells (NCI), 48 h

SMILES strings stand for the structures.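 Exposure lasted 48 hours, with cells grown in 96-well plates and compounds tested at five concentrations. The concentration for full growth arrest is given as TGI.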

As to `CCCN(CCC)c1c([N+](=O)[O-])cc(C(=O)N(CC)CC)cc1[N+](=O)[O-]`, the TGI in the assay on DMS 114 small cell lung is 42.8 µM; in the assay with DLD-1 colon, over 100 µM; in the assay on KM20L2 colon, 53.1 µM; in the assay on DMS 273 small cell lung it was 43.7 µM; in the assay with LXFL 529 NSCLC it was 63.7 µM.

Compound `Cc1cc(C(=O)CSC(=S)SC(C)(C)C)ccc1Cl` returned a TGI in the assay on MDA-N of 36.8 µM.

With `O=C(c1ccc([N+](=O)[O-])cc1[N+](=O)[O-])N(/N=C/C=C/c1ccccc1)c1nnc(-c2ccccc2)c(-c2ccccc2)n1`, the TGI with XF 498 CNS is 42.3 µM; in the assay on DMS 114 small cell lung it was over 100 µM; in the assay on DLD-1 colon it was over 100 µM; with KM20L2 colon, over 100 µM; with DMS 273 small cell lung it was 72.6 µM.

Regarding `CCOc1ccc(OCC(=O)O)c2c1CCCC2=O`, the TGI in the assay on XF 498 CNS, in the assay on DMS 114 small cell lung, in the assay with DLD-1 colon, with RXF-631 renal, with DMS 273 small cell lung and with LXFL 529 NSCLC was over 100 µM each time.

For `COc1cc(OC)c(OC)cc1/C=N/NC(=O)N/N=C/c1cc(OC)c(OC)cc1OC`, the TGI in the assay with XF 498 CNS, in the assay with DMS 114 small cell lung, with KM20L2 colon, in the assay on HOP-18 NSCLC, in the assay with DMS 273 small cell lung and in the assay on LXFL 529 NSCLC was over 100 µM in each case.

On to `COc1ccc(NC(=O)CSc2nnc(-c3ccc(NC(C)=O)cc3)o2)cc1`, for which the TGI with DMS 114 small cell lung turned out to be 19.3 µM; with DLD-1 colon, 41 µM; in the assay with KM20L2 colon, 36.8 µM; in the assay on HOP-18 NSCLC, 34.9 µM; with DMS 273 small cell lung it was 33.7 µM; in the assay with LXFL 529 NSCLC, 26.7 µM.

Turning to `COC(=N)c1csc(C2OC(CO)C(O)C2O)n1` (configuration not stated), the TGI in the assay with XF 498 CNS, in the assay with DMS 114 small cell lung, in the assay on DLD-1 colon, in the assay with KM20L2 colon, with RXF-631 renal and with HOP-18 NSCLC was over 100 µM in each case. Moreover, the TGI with DMS 273 small cell lung and with LXFL 529 NSCLC was over 100 µM throughout.

`COC(=O)c1c(C)cc(OC)c(C/C=C(\C)CCCc2coc(C=C(C)C)c2)c1OC` gave a TGI in the assay with MDA-N of over 100 µM.

As for `CN(Cc1cnc2nc(N)nc(N)c2n1)c1ccc(C(=O)N[C@@H](CCS(=O)(=O)O)C(=O)O)cc1`, in the assay on MDA-N, the TGI was over 100 µM.

The compound `COc1c2occc2c(N)c2ccc(=O)oc12` yielded a TGI in the assay with MDA-N of over 100 µM.

Regarding `C[N+](C)(C)CC(=O)N/N=C(/Cc1cc(=O)oc2cc(O)ccc12)C(=O)Nc1ccc(Cl)cc1`, the TGI with DMS 114 small cell lung, in the assay with DLD-1 colon, in the assay with KM20L2 colon and with RXF-631 renal was over 100 µM each time.

With `CSC[C@H](NC(=O)COc1cccc2cnccc12)C(=O)NC(Cc1ccccc1)C(O)C(=O)N1CSC[C@H]1C(=O)NC(C)(C)C` (some centres not stated), in the assay on MDA-N, the TGI was over 100 µM.

For `COc1ccc2c(=O)oc3c(OC)cc(CCN(C)C)c4c(=O)oc1c2c34`, the TGI stood at 24.9 µM with DMS 114 small cell lung; 14.8 µM in the assay with MDA-N; 39.4 µM with DLD-1 colon; 28.1 µM in the assay on KM20L2 colon; 27.6 µM with HOP-18 NSCLC; 31.5 µM in the assay with DMS 273 small cell lung. For the same compound, the TGI in the assay with LXFL 529 NSCLC worked out at 26 µM.

Regarding `O=S(=O)(OI(OI(OS(=O)(=O)C(F)(F)F)c1ccccc1)c1ccccc1)C(F)(F)F`, the TGI in the assay with DMS 114 small cell lung was 55 µM; in the assay on DLD-1 colon it was over 100 µM; in the assay on KM20L2 colon it was over 100 µM; with DMS 273 small cell lung it was over 100 µM; with LXFL 529 NSCLC, over 100 µM.

`Cc1nc2c(N)ncnc2o1`: the TGI with DMS 114 small cell lung, in the assay with DLD-1 colon, in the assay with KM20L2 colon, in the assay with RXF-631 renal, in the assay with HOP-18 NSCLC and in the assay with DMS 273 small cell lung was over 100 µM in each case. This compound also displayed a TGI in the assay on LXFL 529 NSCLC of over 100 µM.

As to `O=Cc1cc2c(cc1-c1cc3c(cc1C=O)OCO3)OCO2`, the TGI in the assay on DMS 114 small cell lung, with DLD-1 colon, in the assay on KM20L2 colon, in the assay with HOP-18 NSCLC, with DMS 273 small cell lung and in the assay with LXFL 529 NSCLC was over 100 µM in each case.

`CCCCCCCCc1cc2c(O)c(c1)Cc1cc(CCCCCCCC)cc(c1O)Cc1cc(CCCCCCCC)cc(c1O)Cc1cc(CCCCCCCC)cc(c1O)Cc1cc(CCCCCCCC)cc(c1O)Cc1cc(CCCCCCCC)cc(c1O)C2`: the TGI with XF 498 CNS, in the assay on DMS 114 small cell lung, with DLD-1 colon, in the assay on KM20L2 colon, with RXF-631 renal and in the assay on HOP-18 NSCLC was over 100 µM in each case. In the assay on LXFL 529 NSCLC, this compound had a TGI of over 100 µM.

In the case of `CCCCNCCCNCCCNC(=O)c1csc(-c2csc(CCNC(=O)C(NC(=O)C(C)C(O)C(C)NC(=O)C(NC(=O)c3nc(C(CC(N)=O)NCC(N)C(N)=O)nc(N)c3C)C(OC3OC(CO)C(O)C(O)C3OC3OC(CO)C(O)C(OC(N)=O)C3O)c3cnc[nH]3)C(C)O)n2)n1` (configuration not stated), the TGI was 8.73 µM in the assay with DMS 114 small cell lung; over 100 µM with DLD-1 colon; over 100 µM with KM20L2 colon; over 100 µM with RXF-631 renal; over 100 µM in the assay on HOP-18 NSCLC; 2.97 µM in the assay with DMS 273 small cell lung. Moreover, the TGI in the assay with LXFL 529 NSCLC was over 100 µM.

With `O=C1C=C(c2c(O)ccc3ccccc23)c2cc(O)ccc2C1=O`, the TGI in the assay with XF 498 CNS was found to be 23.3 µM; in the assay on DMS 114 small cell lung, 19.6 µM; in the assay on DLD-1 colon, 37.6 µM; in the assay on KM20L2 colon, 38.7 µM; in the assay with HOP-18 NSCLC, 43.8 µM; in the assay on DMS 273 small cell lung, 30.8 µM. Further, in the assay with LXFL 529 NSCLC, the TGI was 19.5 µM.

On to `CCOc1ccc(NC(=O)CC2SC(=Nc3ccc(C)cc3C)NC2=O)cc1` (configuration not stated), for which the TGI in the assay with XF 498 CNS, in the assay on DLD-1 colon, in the assay on KM20L2 colon, in the assay on DMS 273 small cell lung and in the assay on LXFL 529 NSCLC was over 100 µM in each case.

`CCC(C)(C)n1c(C)nc2c1C(=O)c1ccccc1C2=O`: the TGI is 46.7 µM in the assay on XF 498 CNS; over 100 µM in the assay with DLD-1 colon; over 100 µM in the assay on KM20L2 colon; 44.6 µM in the assay on DMS 273 small cell lung; over 100 µM in the assay on LXFL 529 NSCLC.

On to `c1ccc2c(c1)CCc1c(-c3ccncc3)n[nH]c1-2`, for which the TGI was 22.5 µM with XF 498 CNS; 51.7 µM in the assay with DMS 114 small cell lung; over 100 µM with DLD-1 colon; 45.9 µM in the assay with KM20L2 colon; 52.1 µM in the assay with DMS 273 small cell lung; 66.2 µM with LXFL 529 NSCLC.

Source of the values: PubChem BioAssay (NCI).
